Measured values published in PubChem BioAssay (NCI).
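Results reflect a 48-hour exposure of cells in 96-well plates to compound at five concentrations. GI50 = concentration required for 50% inhibition of growth. TGI is the concentration that stops growth completely.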

How the values were obtained:
Assay in all cases: NCI-60 cell line screen, 48 h
786-0 renal = system: 786-0 renal
A498 renal = system: A498 renal
A549 NSCLC = system: A549 NSCLC
ACHN renal = system: ACHN renal
BT-549 breast = system: BT-549 breast
CAKI-1 renal = system: CAKI-1 renal
CCRF-CEM leukemia = system: CCRF-CEM leukemia
COLO 205 colon = system: COLO 205 colon
DU-145 prostate = system: DU-145 prostate
EKVX NSCLC = system: EKVX NSCLC
HCC-2998 colon = system: HCC-2998 colon
HCT-116 colon = system: HCT-116 colon
HCT-15 colon = system: HCT-15 colon
HL-60(TB) leukemia = system: HL-60(TB) leukemia
HOP-62 NSCLC = system: HOP-62 NSCLC
HOP-92 NSCLC = system: HOP-92 NSCLC
HS 578T breast = system: HS 578T breast
HT29 colon = system: HT29 colon
IGROV1 ovarian = system: IGROV1 ovarian
K-562 leukemia = system: K-562 leukemia
KM12 colon = system: KM12 colon
LOX IMVI melanoma = system: LOX IMVI melanoma
M14 melanoma = system: M14 melanoma
MALME-3M melanoma = system: MALME-3M melanoma
MCF7 breast = system: MCF7 breast
MDA-MB-231 breast = system: MDA-MB-231 breast
MDA-MB-435 = system: MDA-MB-435
MOLT-4 leukemia = system: MOLT-4 leukemia
NCI-H226 lung = system: NCI-H226 lung
NCI-H23 lung = system: NCI-H23 lung
NCI-H460 lung = system: NCI-H460 lung
NCI-H522 lung = system: NCI-H522 lung
NCI/ADR-RES ovarian = system: NCI/ADR-RES ovarian
OVCAR-3 ovarian = system: OVCAR-3 ovarian
OVCAR-4 ovarian = system: OVCAR-4 ovarian
OVCAR-5 ovarian = system: OVCAR-5 ovarian
OVCAR-8 ovarian = system: OVCAR-8 ovarian
PC-3 prostate = system: PC-3 prostate
RPMI-8226 leukemia = system: RPMI-8226 leukemia
RXF 393 renal = system: RXF 393 renal
SF-268 CNS = system: SF-268 CNS
SF-295 CNS = system: SF-295 CNS
SF-539 CNS = system: SF-539 CNS
SK-MEL-2 melanoma = system: SK-MEL-2 melanoma
SK-MEL-28 melanoma = system: SK-MEL-28 melanoma
SK-MEL-5 melanoma = system: SK-MEL-5 melanoma
SK-OV-3 ovarian = system: SK-OV-3 ovarian
SN12C renal = system: SN12C renal
SNB-19 CNS = system: SNB-19 CNS
SNB-75 CNS = system: SNB-75 CNS
SR leukemia = system: SR leukemia
SW-620 colon = system: SW-620 colon
T-47D breast = system: T-47D breast
TK-10 renal = system: TK-10 renal
U251 CNS = system: U251 CNS
UACC-257 melanoma = system: UACC-257 melanoma
UACC-62 melanoma = system: UACC-62 melanoma
UO-31 renal = system: UO-31 renal

**Q.** Which results are given for `COc1cccc(-n2ncc3c(N/N=C/c4cccc(F)c4)ncnc32)c1`?
**A.** GI50 (786-0 renal): 7.31 µM; TGI (786-0 renal): 20.8 µM; GI50 (A498 renal): 5.13 µM; TGI (A498 renal): 11.2 µM; GI50 (A549 NSCLC): 4.94 µM; TGI (A549 NSCLC): 10.6 µM; GI50 (ACHN renal): 7.54 µM; TGI (ACHN renal): > 20.3 µM; GI50 (BT-549 breast): 19.5 µM; TGI (BT-549 breast): > 25 µM; GI50 (CAKI-1 renal): 8.59 µM; TGI (CAKI-1 renal): 24.6 µM; GI50 (CCRF-CEM leukemia): > 25 µM; TGI (CCRF-CEM leukemia): > 25 µM; GI50 (COLO 205 colon): 8.06 µM; TGI (COLO 205 colon): > 22 µM; GI50 (DU-145 prostate): 9.01 µM; TGI (DU-145 prostate): > 24.1 µM; GI50 (EKVX NSCLC): 10.2 µM; TGI (EKVX NSCLC): > 25 µM; GI50 (HCC-2998 colon): 20.3 µM; TGI (HCC-2998 colon): > 25 µM; GI50 (HCT-116 colon): 5.76 µM; TGI (HCT-116 colon): 11.3 µM; GI50 (HCT-15 colon): 14.9 µM; TGI (HCT-15 colon): > 25 µM; GI50 (HL-60(TB) leukemia): > 25 µM; TGI (HL-60(TB) leukemia): > 25 µM; GI50 (HOP-62 NSCLC): 5.87 µM; TGI (HOP-62 NSCLC): 11.4 µM; GI50 (HOP-92 NSCLC): 5.59 µM; TGI (HOP-92 NSCLC): 14.2 µM; GI50 (HS 578T breast): 6.02 µM; TGI (HS 578T breast): 15.6 µM; GI50 (HT29 colon): 12.9 µM; TGI (HT29 colon): > 25 µM; GI50 (IGROV1 ovarian): 13.9 µM; TGI (IGROV1 ovarian): > 25 µM; GI50 (K-562 leukemia): > 25 µM; TGI (K-562 leukemia): > 25 µM; GI50 (KM12 colon): 14.7 µM; TGI (KM12 colon): > 25 µM; GI50 (LOX IMVI melanoma): 9.44 µM; TGI (LOX IMVI melanoma): > 25 µM; GI50 (M14 melanoma): 11.3 µM; TGI (M14 melanoma): > 25 µM; GI50 (MALME-3M melanoma): 7.96 µM; TGI (MALME-3M melanoma): > 25 µM; GI50 (MCF7 breast): > 14.6 µM; TGI (MCF7 breast): > 25 µM; GI50 (MDA-MB-231 breast): 5.78 µM; TGI (MDA-MB-231 breast): 15.6 µM; GI50 (MDA-MB-435): 10.1 µM; TGI (MDA-MB-435): > 25 µM; GI50 (MOLT-4 leukemia): > 25 µM; TGI (MOLT-4 leukemia): > 25 µM; GI50 (NCI-H226 lung): 9.16 µM; TGI (NCI-H226 lung): 24.5 µM; GI50 (NCI-H23 lung): 11.3 µM; TGI (NCI-H23 lung): > 25 µM; GI50 (NCI-H460 lung): 6.05 µM; TGI (NCI-H460 lung): 12.8 µM; GI50 (NCI-H522 lung): > 15.6 µM; TGI (NCI-H522 lung): > 25 µM; GI50 (NCI/ADR-RES ovarian): 8.11 µM; TGI (NCI/ADR-RES ovarian): > 25 µM; GI50 (OVCAR-3 ovarian): 5.42 µM; TGI (OVCAR-3 ovarian): 10.1 µM; GI50 (OVCAR-4 ovarian): 6.28 µM; TGI (OVCAR-4 ovarian): 13.5 µM; GI50 (OVCAR-5 ovarian): > 23.2 µM; TGI (OVCAR-5 ovarian): > 25 µM; GI50 (OVCAR-8 ovarian): 7.16 µM; TGI (OVCAR-8 ovarian): 18 µM; GI50 (PC-3 prostate): 9.86 µM; TGI (PC-3 prostate): > 25 µM; GI50 (RPMI-8226 leukemia): > 25 µM; TGI (RPMI-8226 leukemia): > 25 µM; GI50 (RXF 393 renal): 5.57 µM; TGI (RXF 393 renal): 12.7 µM; GI50 (SF-268 CNS): 8.46 µM; TGI (SF-268 CNS): > 22 µM; GI50 (SF-295 CNS): 8.19 µM; TGI (SF-295 CNS): > 17.6 µM; GI50 (SF-539 CNS): 12.5 µM; TGI (SF-539 CNS): > 25 µM; GI50 (SK-MEL-2 melanoma): 12.3 µM; TGI (SK-MEL-2 melanoma): > 25 µM; GI50 (SK-MEL-28 melanoma): 8.64 µM; TGI (SK-MEL-28 melanoma): > 25 µM; GI50 (SK-MEL-5 melanoma): 18.8 µM; TGI (SK-MEL-5 melanoma): > 25 µM; GI50 (SK-OV-3 ovarian): 4.8 µM; TGI (SK-OV-3 ovarian): 9.14 µM; GI50 (SN12C renal): 6.74 µM; TGI (SN12C renal): > 19.6 µM; GI50 (SNB-19 CNS): 12.3 µM; TGI (SNB-19 CNS): > 25 µM; GI50 (SNB-75 CNS): 5.05 µM; TGI (SNB-75 CNS): 12.4 µM; GI50 (SR leukemia): 13.6 µM; TGI (SR leukemia): > 25 µM; GI50 (SW-620 colon): 16.8 µM; TGI (SW-620 colon): > 25 µM; GI50 (T-47D breast): 6.41 µM; TGI (T-47D breast): > 19.2 µM; GI50 (TK-10 renal): 6.93 µM; TGI (TK-10 renal): 18.9 µM; GI50 (U251 CNS): 4.66 µM; TGI (U251 CNS): 9.04 µM; GI50 (UACC-257 melanoma): 16.4 µM; TGI (UACC-257 melanoma): > 25 µM; GI50 (UACC-62 melanoma): 11.1 µM; TGI (UACC-62 melanoma): > 25 µM; GI50 (UO-31 renal): 6.73 µM; TGI (UO-31 renal): > 16.4 µM
